Measured values: patent publication US20260049085A1, “CYCLIC COMPOUNDS AND METHODS OF USING SAME” (SCHRÖDINGER, INC., priority 2022, published 2026)

Experiments:
[1] = target: T1, full-length MALT1 protein His-MALT1(1-824) (Homo sapiens, UniProt Q9UDY8); assay: MALT1 protease assay (Ac-LRSR-AMC tetrapeptide substrate, fluorescence); format: biochemical; conditions: 1 nM MALT1, 25 μM Ac-LRSR-AMC, 2 h pre-incubation, 8 hr incubation at RT
T1 construct: full-length MALT1 protein His-MALT1(1-824); His (N); made in house; host or cells: baculovirus-infected insect cells
T1 sequence (Q9UDY8 1-824): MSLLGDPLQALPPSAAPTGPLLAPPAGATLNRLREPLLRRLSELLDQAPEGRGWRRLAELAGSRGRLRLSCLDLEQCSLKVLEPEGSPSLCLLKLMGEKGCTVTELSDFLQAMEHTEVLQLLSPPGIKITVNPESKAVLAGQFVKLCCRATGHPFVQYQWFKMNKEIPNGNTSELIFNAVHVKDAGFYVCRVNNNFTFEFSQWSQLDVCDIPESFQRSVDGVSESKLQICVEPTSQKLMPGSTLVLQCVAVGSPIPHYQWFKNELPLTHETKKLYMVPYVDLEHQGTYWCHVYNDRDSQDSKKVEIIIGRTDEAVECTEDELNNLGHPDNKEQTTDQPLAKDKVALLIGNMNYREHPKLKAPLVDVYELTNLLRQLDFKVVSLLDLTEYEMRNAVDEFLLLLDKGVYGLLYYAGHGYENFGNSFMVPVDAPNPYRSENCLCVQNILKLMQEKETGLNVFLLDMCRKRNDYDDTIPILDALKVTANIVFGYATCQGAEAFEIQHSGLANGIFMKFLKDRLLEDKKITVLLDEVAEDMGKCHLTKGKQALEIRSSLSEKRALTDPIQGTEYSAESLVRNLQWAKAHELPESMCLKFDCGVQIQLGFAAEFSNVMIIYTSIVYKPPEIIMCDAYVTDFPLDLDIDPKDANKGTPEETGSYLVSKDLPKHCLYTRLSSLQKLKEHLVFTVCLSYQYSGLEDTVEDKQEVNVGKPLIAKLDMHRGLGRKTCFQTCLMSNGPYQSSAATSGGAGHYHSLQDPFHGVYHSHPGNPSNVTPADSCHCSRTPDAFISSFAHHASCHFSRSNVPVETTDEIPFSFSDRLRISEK
Summary of the method: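 Full-length His-MALT1(1-824) from baculovirus-infected insect cells (1 nM) was pre-incubated 2 h at RT with compounds (0.1% DMSO), then 25 μM Ac-LRSR-AMC added in 50 mM Tris pH 7.5, 600 mM sodium citrate, 1 mM DTT, 1 mM EDTA, 0.05% BSA. Fluorescence (ex 355/em 460 nm) read after 8 h at RT; IC50 by non-linear regression of % remaining activity.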

[2] = test system: IL10 secretion, OCI-LY10 cells; assay: Human IL10 secretion assay in OCI-LY10 cells (MSD); format: cell-based; conditions: 24 h incubation, relative to DMSO set as 100%, read-out: IL-10 Secretion IC50
Experimental: IL10 is one of the cytokines that are regulated via activation of NF-kB signaling. For example, in ABC-DLBCL cell lines, the activated NF-kB signaling leads to increased IL10 secretion. Inhibition of NF-kB signaling has been shown leading to decreased IL10 secretion.
OCI-LY10 cells were seeded in IMEM supplemented with 20% fetal bovine serum at 4.8×10^5 cells per 160 μL per well in 96-well V-bottom cell culture plates (coming, 3894), treated with 120 nL of 3-fold serial compound dilutions, starting at 4 mM. The final vehicle concentration was 0.075% DMSO in all wells. After a 24 h incubation, human IL-10 pre-coated plates (Meso Scale Discovery) were washed 3 times with PBST, and 50 μL culture medium was aspirated into the MSD plate and incubated at 4° C. overnight. The supernatant was then discarded, and the wells were washed 3 times with PBST. SULFO-TAG Anti-human IL-10 Antibody (50×) was diluted 50-fold according to the Meso Scale Protocol, then 25 μL of SULFO-TAG Anti-human IL-10 Antibody (1×) was added. After 2 h of incubation at RT, the supernatant was discarded, and the well was washed 3 times with PBST. 2× read buffer was added and the signal was read on an MSD Sector S600. The effect of a particular compound on IL10 secretion is shown relative to the effect of DMSO; set as 100%. IC50 values (nM) were determined using 4-parametric curve-fitting.

IC50 [1]	IC50 [2]	Structure (SMILES)
< 10 nM	10 to 100 nM	C[C@]1(c2ccn(C(F)F)n2)C[C@H](C(=O)Nc2cnc(-n3nccn3)c(Cl)c2)c2cnc3cc(F)nn3c21 (single isomer, unassigned) [Example 88]
< 10 nM	10 to 100 nM	CC(F)(F)n1cc([C@@]2(C)C[C@H](C(=O)Nc3cnc(-n4nccn4)c(Cl)c3)c3cnc4cc(F)nn4c32)cn1 (single isomer, unassigned) [Example 120]
< 10 nM	10 to 100 nM	C[C@]1(c2ccn(C(F)F)n2)C[C@H](C(=O)Nc2cnc(-c3ncccn3)c(Cl)c2)c2cnc3cc(F)nn3c21 (single isomer, unassigned) [Example 140]
< 10 nM	10 to 100 nM	C[C@]1(c2cnn(C(F)F)c2)C[C@H](C(=O)Nc2cnc(-n3nccn3)c(Cl)c2)c2cnc3cc(F)nn3c21 (single isomer, unassigned) [Example 24]
< 10 nM	100 to 1000 nM	Cn1ccc([C@@]2(C)C[C@H](C(=O)Nc3cnc(-n4nccn4)c(Cl)c3)c3cnc4cc(F)nn4c32)n1 (single isomer, unassigned) [Example 32]
< 10 nM	10 to 100 nM	C[C@]1(c2ccn(C(F)F)n2)C[C@H](C(=O)Nc2cnc(-n3nccn3)c(C(F)(F)F)c2)c2cnc3cc(F)nn3c21 (single isomer, unassigned) [Example 124]

More lines, now with the values behind:

Structure (SMILES)	IC50 [1]	IC50 [2]
C[C@]1(c2cnn(C(F)F)c2)C[C@H](C(=O)Nc2cnc(OC(F)F)c(C#N)c2)c2cnc3cc(F)nn3c21 (single isomer, unassigned) [Example 92]	< 10 nM	100 to 1000 nM
Cn1cc([C@@]2(C)C[C@H](C(=O)Nc3cnc(-n4nccn4)c(C(F)(F)F)c3)c3cnc4cc(F)nn4c32)cn1 (single isomer, unassigned) [Example 5]	< 10 nM	10 to 100 nM
CC1(c2ccn(C(F)F)n2)CC(C(=O)Nc2cnc(-c3ncc(F)cn3)c(C(F)(F)F)c2)c2cnc3cc(F)nn3c21 (single isomer, unassigned) [Example 116]	< 10 nM	100 to 1000 nM
Cn1cc([C@@]2(C)C[C@H](C(=O)Nc3cnc(-n4nccn4)c(Cl)c3)c3cnc4cc(Cl)nn4c32)cn1 (single isomer, unassigned) [Example 8]	< 10 nM	10 to 100 nM
Cn1cc([C@@]2(C)C[C@H](C(=O)Nc3cnc(OC(F)F)c(C#N)c3)c3cnc4cc(F)nn4c32)cn1 (single isomer, unassigned) [Example 40]	< 10 nM	10 to 100 nM
C[C@]1(c2ccn(C(F)F)n2)C[C@H](C(=O)Nc2cnc(OC(F)F)c(C#N)c2)c2cnc3cc(F)nn3c21 (single isomer, unassigned) [Example 110]	< 10 nM	10 to 100 nM
C[C@]1(c2cnn(C3CC3)c2)C[C@H](C(=O)Nc2cnc(-n3nccn3)c(Cl)c2)c2cnc3cc(F)nn3c21 (single isomer, unassigned) [Example 28]	< 10 nM	10 to 100 nM
C[C@]1(c2ccn(C(F)F)n2)C[C@H](C(=O)Nc2cnc(-c3ncccn3)c(C(F)(F)F)c2)c2cnc3cc(F)nn3c21 (single isomer, unassigned) [Example 136]	< 10 nM	10 to 100 nM
Cn1ccc([C@@]2(C)C[C@H](C(=O)Nc3cnc(OC(F)F)c(C#N)c3)c3cnc4cc(F)nn4c32)n1 (single isomer, unassigned) [Example 68]	< 10 nM	100 to 1000 nM
CCn1cc([C@@]2(C)C[C@H](C(=O)Nc3cnc(-n4nccn4)c(Cl)c3)c3cnc4cc(F)nn4c32)cn1 (single isomer, unassigned) [Example 20]	< 10 nM	10 to 100 nM
C[C@]1(c2cnn(C(F)F)c2)C[C@H](C(=O)Nc2cnc(-c3ncccn3)c(C(F)(F)F)c2)c2cnc3cc(F)nn3c21 (single isomer, unassigned) [Example 148]	10 to 100 nM	100 to 1000 nM
Cn1cc([C@@]2(C)C[C@H](C(=O)Nc3cnc(-n4nccn4)c(Cl)c3)c3cnc4c(F)c(F)nn4c32)cn1 (single isomer, unassigned) [Example 12]	< 10 nM	100 to 1000 nM
